Data taken from patent US20080227866A1, “Hydroxyphenylalkadiones and Their Use for Masking Bitter Taste and/or for Intensifying Sweet Taste” (SYMRISE GMBH & CO. KG, priority 2005, published 2008).

How the values were obtained:
[1] = Bitterness reduction in a bitter principle solution, rated by a group of experts (caffeine); type: in vivo; details: 100 ppm substance in aqueous 500 ppm caffeine; for % reduction in the bitter impression: calculated from the average panel values; for Bitter impression (1-10) with: panel mean ± 95% confidence interval
Protocol: In order to quantify the reduction in the bitter impression, the bitterness of an aqueous bitter principle solution and of a sample which contained the same amount of bitter principle and a varying amount of the compound given by way of example was determined by a group of experts ([…]). The evaluation was made as a calculation of the reduction (in %) of the bitter impression from the average values of the estimations of the bitter principle solution and of the solutions containing bitter principle and compound given by way of example. 2,4-Dihydrobenzoic acid (2,4-DHB) was used as a comparison from U.S. Pat. No. 5,643,941. HED means homoeriodictyol sodium salt according to EP 1 258 200 B1.
(§1) Table: Bitterness of a bitter principle solution and of a solution containing bitter principle and a compound given by way of example (2,4-DHB=2,4-dihydroxybenzoic acid, HED=homoeriodictyol sodium salt according to EP 1 258 200 B1). “Testers positive” means the number of testers who were able to detect masking; the 95% confidence intervals are stated as errors; p<x means the significance according to the Student t test method (cf. statistics textbooks), n.s. means not significant.

[2] = Bitterness reduction in a bitter principle solution, rated by a group of experts (quinine hydrochloride); type: in vivo; details: 100 ppm substance in aqueous 5 ppm quinine hydrochloride
Protocol: In order to quantify the reduction in the bitter impression, the bitterness of an aqueous bitter principle solution and of a sample which contained the same amount of bitter principle and a varying amount of the compound given by way of example was determined by a group of experts (classification 0 [not bitter] to 10 [extremely bitter]). The evaluation was made as a calculation of the reduction (in %) of the bitter impression from the average values of the estimations of the bitter principle solution and of the solutions containing bitter principle and compound given by way of example. 2,4-Dihydrobenzoic acid (2,4-DHB) was used as a comparison from U.S. Pat. No. 5,643,941. HED means homoeriodictyol sodium salt according to EP 1 258 200 B1.
as §1

[3] = Intensification of the sweet impression of a sucrose solution, rated by a group of experts; type: in vivo; details: 100 ppm test compound in 5 wt. % sucrose; for % intensification of the sweet impression: calculated from the average panel values; for Sweet impression (1-10) of a 5% strength sucrose solution with Test substance: panel mean ± standard deviation; for number of testers who found the test solution sweeter: second figure in brackets (total/positive)
Protocol: In order to quantify the intensification of the sweet impression, the sweetness of a solution containing 5 wt. % of sucrose and of a sample which contained 5 wt. % of sucrose and 100 ppm of the test compound was determined by a group of experts (classification 0 [not sweet] to 10 [extremely sweet]). The evaluation was made as a calculation of the intensification (in %) of the sweet impression from the average values of the estimations of the sucrose solution and of the solution containing sucrose and compound 2.
Table: Sweetness (a) of a sucrose solution and (b) of a solution containing sucrose and test substance; the standard deviations are stated as errors. In the last column, the total number of testers is stated against the number of testers who found the test solution sweeter.

[4] = described in DE 2 161,528; cited from earlier work

SMILES	Testers positive (number of testers who were able to detect masking) [1]	% reduction in the bitter impression [1]	Bitter impression (1-10) with [1]	Testers positive (number of testers who were able to detect masking) [2]	% reduction in the bitter impression ([2]; calculated from the average panel values)	Bitter impression (1-10) with ([2]; panel mean ± 95% confidence interval)	% intensification of the sweet impression [3]	Sweet impression (1-10) of a 5% strength sucrose solution with Test substance [3]	number of testers who found the test solution sweeter [3]	antihypertensive action [4]
O=C(O)c1ccc(O)cc1O [2,4-DHB, 2,4-dihydroxybenzoic acid, reference compound]	9	3%, n.s.	5.0 ± 1.0							
COc1cc(/C=C/C(=O)CC(C)=O)ccc1O [compound 1, (5E)-6-(4-hydroxy-3-methoxyphenyl)hex-5-ene-2,4-dione]	9	21%,	5.1 ± 1.0							
COc1cc(CCC(=O)CC(C)=O)ccc1O [compound 4, 6-(4-hydroxy-3-methoxyphenyl)hexane-2,4-dione]	15	34%,	3.9 ± 0.8	10	21%,	1.3 ± 0.8	+13%	5.3 ± 1.6	9	
COc1cc(CCC(=O)C2C(=O)CCC2=O)ccc1O [compound 9, 2-(3-[4-hydroxy-3-methoxyphenyl]propionyl)-cyclopentane-1,3-dione]										weak antihypertensive agent
COc1ccc(/C=C/C(=O)CC(C)=O)cc1O [compound 10, (5E)-6-(3-Hydroxy-4-methoxyphenyl)hex-5-ene-2,4-dione]	12	23%	4.6 ± 0.9							
COc1ccc(CCC(=O)CC(C)=O)cc1O [compound 11, 6-(3-hydroxy-4-methoxyphenyl)hexane-2,4-dione]	11	17%, n.s.	4.2 ± 0.8				+28%	6.6 ± 1.2	13	
